US20230357253A1, “AGONISTS OF STIMULATOR OF INTERFERON GENES STING” (THE SCRIPPS RESEARCH INSTITUTE, priority 2020, published 2023)

The compounds below were run on THP-1 Lucia ISG cells (assay: ISRE-luciferase assay (ISG-LUC activation)). Conditions: Homo sapiens, THP1-Lucia ISG, 24 hours, luciferase reporter.
Type: cell-based
Description: ISRE-luciferase assay. THP-1 Lucia ISG cells were resuspended in low-serum growth media (2% FBS) at a density of 5×10^5 cells/ml and treated with test article or vehicle (DMSO). 50 μL of cells were seeded into each well of a 384-well white greiner plates and incubated for 24 hours. To evaluate expression of the luciferase reporter, 30 μl of Quanti-luc (Invivogen) detection reagent was added to each well and luminescence was read using an Envision plate reader (Perkin Elmer) set with an integration time of 0.1 seconds. For each cell type, luminescence signals for test article samples were normalized to vehicle-treated samples and reported as relative light units (RLU).

Row | Compound | EC50
1 | O=C(Nc1cc(CCOc2cc(NC(=O)c3ccc(-c4cn[nH]c4)nn3)c(C(=O)O)cc2F)c(F)cc1C(=O)O)c1ccc(-c2cn[nH]c2)nn1 [Compound 4, 2-(6-(1H-pyrazol-4-yl)pyridazine-3-carboxamido)-4-(5-(6-(1H-pyrazol-4-yl)pyridazine-3-carboxamido)-4-carboxy-2-fluorophenethoxy)-5-fluorobenzoic acid] | 0.05 to 0.5 µM
2 | O=c1oc(-c2ccc(-n3ccnc3)nn2)nc2c(F)c(OCCCCOc3c(F)cc4c(=O)oc(-c5ccc(-n6ccnc6)nn5)nc4c3F)c(F)cc12 [Compound 9, 7,7′-(butane-1,4-diylbis(oxy))bis(2-(6-(1H-imidazol-1-yl)pyridazin-3-yl)-6,8-difluoro-4H-benzo[d][1,3]oxazin-4-one)] | 0.5 to 5 µM
3 | O=C(Nc1cc(CCCc2ccc(NC(=O)c3ccc4nnnn4n3)c(C(=O)O)c2)ccc1C(=O)O)c1ccc2nnnn2n1 [Compound 13] | 0.5 to 5 µM
4 | O=C(Nc1cc(CCCc2ccc(C(=O)O)c(NC(=O)c3ccc4nnnn4n3)c2)ccc1C(=O)O)c1ccc2nnnn2n1 [Compound 14] | 0.5 to 5 µM
5 | O=C(Nc1cc(OCCOc2cc(C(=O)O)c(NC(=O)c3ccc4nnnn4n3)cc2F)ccc1C(=O)O)c1ccc2nnnn2n1 [Compound 26] | > 5 µM
6 | O=C(Nc1cc(OCCCOc2cc(C(=O)O)c(NC(=O)c3ccc4nnnn4n3)cc2F)c(F)cc1C(=O)O)c1ccc2nnnn2n1 [Compound 33] | > 5 µM
7 | O=C(Nc1cc(OCCCCOc2ccc(C(=O)O)c(NC(=O)c3ccc(-n4ccnc4)nn3)c2)ccc1C(=O)O)c1ccc(O)nn1 [Compound 35] | > 5 µM
8 | COC(=O)c1cc(F)c(OCCCCOc2c(F)cc(C(=O)OC)c(NC(=O)c3ccc(-n4ccnc4)nn3)c2F)c(F)c1NC(=O)c1ccc(-n2ccnc2)nn1 [Compound 36] | < 0.05 µM

Next, values leading:

Row | EC50 | Compound
9 | 0.05 to 0.5 µM | O=C(Nc1cc(CCCc2cc(NC(=O)c3ccc(-n4ccnc4)nn3)c(C(=O)O)cc2F)c(F)cc1C(=O)O)c1ccc(-n2ccnc2)nn1 [Compound 3, 4,4′-(propane-1,3-diyl)bis(2-(6-(1H-imidazol-1-yl)pyridazine-3-carbox-amido)-5-fluorobenzoic acid)]
10 | 0.05 to 0.5 µM | CC(CCOc1cc(NC(=O)c2ccc(-n3ccnc3)nn2)c(C(=O)O)cc1F)Oc1cc(NC(=O)c2ccc(-n3ccnc3)nn2)c(C(=O)O)cc1F (stereo not shown) [Compound 5, 4,4′-(butane-1,3-diylbis(oxy))bis(2-(6-(1H-imidazol-1-yl)pyridazine-3-carboxamido)-5-fluorobenzoic acid)]
11 | 0.05 to 0.5 µM | COc1cc(C(=O)O)c(NC(=O)c2ccc(-n3ccnc3)nn2)cc1OCCc1cc(C(=O)O)c(NC(=O)c2ccc3nnnn3n2)cc1Cl [Compound 6, 2-(6-(1H-imidazol-1-yl)pyridazine-3-carboxamido)-4-(5-carboxy-2-chloro-4-(tetrazolo[1,5-b]pyridazine-6-carboxamido)phenethoxy)-5-methoxybenzoic acid]
12 | 0.05 to 0.5 µM | O=C(Nc1cc(OCCCOc2cc(C(=O)O)c(NC(=O)c3ccc(-n4ccnc4)nn3)cc2F)c(F)cc1C(=O)O)c1ccc(-n2ccnc2)nn1 [Compound 10, 2-(6-(1H-imidazol-1-yl)pyridazine-3-carboxamido)-5-(3-(5-(6-(1H-imidazol-1-yl)pyridazine-3-carboxamido)-4-carboxy-2-fluorophenoxy)propoxy)-4-fluoro-benzoic acid]
13 | 0.5 to 5 µM | O=C(Nc1cc(OCCCCOc2cc(NC(=O)c3ccc(-n4ccnc4)nn3)c(C(=O)O)cc2F)ccc1C(=O)O)c1ccc(-n2ccnc2)nn1 [Compound 19]
14 | < 0.05 µM | COC(=O)c1cc(Cl)c(OCCCCOc2cc(NC(=O)c3ccc(-n4ccnc4)nn3)c(C(=O)OC)cc2Cl)cc1NC(=O)c1ccc(-n2ccnc2)nn1 [Compound 23]
15 | > 5 µM | COC(=O)c1cc(F)c(OCCCCOc2cc(NC(=O)c3ccc(-n4ccnc4)nn3)c(C(=O)OC)cc2F)cc1NC(=O)c1ccc(-n2ccnc2)nn1 [Compound 34]
16 | 0.05 to 0.5 µM | O=C(Nc1c(C(=O)O)cc(F)c(OCCCCOc2c(F)cc(C(=O)O)c(NC(=O)c3ccc(-n4ccnc4)nn3)c2F)c1F)c1ccc(-n2ccnc2)nn1 [Compound 38]
